Test results as given in ChEMBL document CHEMBL4673271, “Denigrins and Dactylpyrroles, Arylpyrrole Alkaloids from a Dactylia sp. Marine Sponge” (J Nat Prod, 2020).
Starred links: 1 amine or outer side, 2 acyl side, 3 side chain; linkers in the order of their positions; H or OH if unused. Positions of bridges follow the written chain, without caps; N, C: chain ends. Non-standard residues stand in square brackets, D forms with d. Residues, ends and D or L forms follow the SMILES beside them. Chains are numbered I, II in the order given. Actinocin(1to9) = Cc1c2oc3c(C)ccc(C(=O)[*:2])c3nc-2c(C(=O)[*:1])c(N)c1=O; NMeV = CN[C@H](C(=O)O)C(C)C; Sar = CNCC(=O)O

Legend:
Assay type in all cases: cell-based
[1] = Inhibition of PAX3-FOXO1 (unknown origin) stably transfected Rh4 cells co-expressing ALK-Luc after 24 hrs by SteadyLite luciferase assay; conditions: Homo sapiens, Rh4, 24 h
[2] = Inhibition of PAX3-FOXO1 (unknown origin) stably transfected Rh4 cells co-expressing CMV-Luc after 24 hrs by SteadyLite luciferase assay; conditions: Homo sapiens, Rh4, 24 h
[3] = Cytotoxicity against human Rh4 cells assessed as reduction in cell viability >=20 uM

Row | IC50 [1] [µM] | IC50 [2] [µM] | SMILES | Activity [3]
1 | 13 | 13 | O=C1C(c2ccc(O)cc2)=C2C(=C(c3ccc(O)cc3)C(=O)N2CCc2ccc(O)cc2)c2c1[nH]c1c(O)cccc21 | Toxic
2 | 0.001 | 0.001 | Cc1c2oc3c(C)ccc(C(=O)N[C@@H]4C(=O)N[C@H](C(C)C)C(=O)N5CCC[C@H]5C(=O)N(C)CC(=O)N(C)[C@@H](C(C)C)C(=O)O[C@@H]4C)c3nc-2c(C(=O)N[C@@H]2C(=O)N[C@H](C(C)C)C(=O)N3CCC[C@H]3C(=O)N(C)CC(=O)N(C)[C@@H](C(C)C)C(=O)O[C@@H]2C)c(N)c1=O [DACTINOMYCIN] (I: T[dV]P[Sar][NMeV] / II: T[dV]P[Sar][NMeV]; ester I:1-I:C, II:1-II:C; linker I:N-II:N via Actinocin(1to9)) | 
